Patent US5731432A, “Inhibitors of adenosine monophosphate deaminase” (priority 1994, dated 1998)
Like-named read-outs stand apart in the source and are kept apart here.

Tests used:
[1] = target: T1, adenosine deaminase (ADA) from calf intestinal mucosa (Bos taurus, UniProt P56658); assay: Adenosine Deaminase Assay (Example B); assay type: biochemical
T1 construct: adenosine deaminase (ADA) from calf intestinal mucosa; from tissue; host or cells: calf intestinal mucosa
T1 sequence (P56658 1-363): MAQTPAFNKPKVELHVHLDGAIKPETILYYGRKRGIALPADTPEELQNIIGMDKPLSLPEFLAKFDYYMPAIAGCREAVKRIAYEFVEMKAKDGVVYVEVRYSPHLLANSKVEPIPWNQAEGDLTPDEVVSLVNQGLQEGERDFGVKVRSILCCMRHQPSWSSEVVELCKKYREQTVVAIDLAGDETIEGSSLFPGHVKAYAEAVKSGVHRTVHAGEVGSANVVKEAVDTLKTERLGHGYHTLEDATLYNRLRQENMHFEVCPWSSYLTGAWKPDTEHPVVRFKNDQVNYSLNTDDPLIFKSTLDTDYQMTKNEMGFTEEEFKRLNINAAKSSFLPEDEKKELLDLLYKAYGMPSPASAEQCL
Experimental: Inhibition of adenosine deaminase (ADA) from calf intestinal mucosa was determined spectrophotometrically at pH 7.0 using one of the following two assays:
(1) Direct Assay: The reaction system mixture contained inhibitor, ~0.001 units ADA, and 40 mM potassium phosphate in 1 ml and at 37° C. The concentration of the substrate adenosine was varied from 20 to 100 μM.
The reaction was initiated by addition of adenosine and monitored continuously at 340 nm for 7 minutes as the decrease in absorbance reflects oxidation of NADH.

[2] = test system: Neutrophil-myocyte adhesion; assay: Inhibition of Neutrophil-Myocyte Adhesion (Example C); assay type: cell-based; settings: read-out: Neutrophil-Myocyte Adhesion Inhibition IC50
Experimental: Isolated neutrophils and myocytes were stimulated with the cytokine, TNF-α, and incubated in the presence of the test compound. Neutrophil-myocyte adhesion was determined as described by […], et al., J. Clin. Invest.

isolated rat hearts = assay: Functional recovery in isolated rat heart model of ischemia-reperfusion injury (Example D); settings: low flow ischemia then 30 minutes reperfusion
Experimental: The ability of AMP deaminase inhibitors of the present invention to improve the recovery of post-ischemic function was examined in an isolated rat heart model of ischemia-reperfusion injury.
Isolated rat hearts were cannulated via the ascending aorta and attached to a perfusion apparatus according to the method of Langendorff. The hearts were perfused at a constant pressure of 100 cm of H2 O with a modified Krebs-Hanseleit buffer (pH 7.4) at 37° C. Left ventricular developed pressures (LVDP) were monitored continuously using a latex balloon attached to a pressure transducer. Coronary flows were measured gravimetrically by timed collection of pulmonary effluent. Following equilibration of the hearts for a period of 30 minutes, the hearts were subjected to […] of low flow ischemia, by reducing the perfusion pressure to 10 cm of H2 O, and then reperfused for 30 minutes by restoring the pressure to its original level (100 cm of H2 O). […] Compound 1 m provided recovery of LVDP to 83±2% compared to the placebo value of 65±2% when added to the perfusion to give a concentration of 0.3 μM.

[3] = target: AMPDA activity from porcine heart; assay: AMP Deaminase Assay (Example A); assay type: biochemical; settings: for Ki: porcine heart AMPDA, 37° C., pH 6.5, competitive inhibition assumed; for Selectivity Ratio: selectivity ratio=[ADA Ki/Km]/[AMPDA Ki/Km], K = 1,000
Experimental: Catalysis was initiated by the addition of enzyme to the otherwise complete reaction mixture, and terminated after 5 minutes by injection into an HPLC system. Activities were determined from the amount of IMP formed during 5 minutes.

AMPDA = settings: reported; kind of constant not stated; cited from earlier work
ADA = target: T2, ADA (Homo sapiens, UniProt P00813); settings: reported; kind of constant not stated; cited from earlier work
T2 sequence (P00813 1-363): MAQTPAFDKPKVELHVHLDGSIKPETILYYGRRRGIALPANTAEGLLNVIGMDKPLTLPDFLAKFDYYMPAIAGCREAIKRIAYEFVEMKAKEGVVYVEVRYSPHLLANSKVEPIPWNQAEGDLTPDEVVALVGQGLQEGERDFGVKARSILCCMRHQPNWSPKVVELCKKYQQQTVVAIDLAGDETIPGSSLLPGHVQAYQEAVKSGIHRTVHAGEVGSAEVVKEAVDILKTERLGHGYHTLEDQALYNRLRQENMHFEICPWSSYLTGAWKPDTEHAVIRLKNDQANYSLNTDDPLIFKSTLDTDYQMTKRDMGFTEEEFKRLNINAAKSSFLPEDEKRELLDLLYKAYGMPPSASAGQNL

Rat Focal Stroke Model = assay: Rat model of ischemic brain injury / focal stroke (Example F); assay type: in vivo
Excerpt: Each rat is anesthetized with halothane and placed on a heating pad hooked up to a temperature regulator and connected to rectal probe. EEG electrodes are then inserted into the temporalis muscle bilaterally in between the eye and the ear. A midline incision is made to expose the left Common Carotid Artery (CCA). The internal Carotid Artery (ICA)is isolated and carefully separated from the adjacent vagus nerve. Following ligation of various vessels the ICA should be the only remaining extracranial branch of the CCA. Two 5-0 silk sutures are tied loosely around the external carotid artery (ECA)and microvascular clips placed on both the CCA (proximal to the bifurcation)and the ICA (in between the first and the second bifurcation). The ECA above the bifurcation is coagulated and the two sutures are then cut below the coagulation. A 25 mm length 4-0 nylon suture, its tip rounded by heating near a fine tipped cauterizer, is introduced into the ECA lumen. 20-22 mm of the suture is inserted into the ECA stump. The suture around the ECA is tightened to hold the occluding suture in place and EEC reading is checked to confirm occlusion by the appearance of a flat line. At this point the intraluminal suture has blocked the origin of the […] (MCA), occluding all sources of blood flow from the interior Carotid Artery (ICA), the […] (ACA), and the posterior cerebral artery (PCA). At 105 min later the suture is gently retracted under halothane anesthesia to allow blood flow back into the middle cerebral artery. The neck incision is closed and animals allowed to recover from anesthesia. At 24 hrs animals are evaluated for behavioral deficits, sacrificed, transcardial perfused, brains removed and TTC stained for visualization of infarcted region using a computer assisted system.
The application of compound 1d is shown in the time line diagram. Thirty minutes prior to induction of ischemia (SUTURE IN) Compound 1d in isotonic saline solution was infused for 15 min at a loading dose of 250 μg/kg/min (50 μl/min)followed by maintenance rate of 50 μg/kg/min for the remaining 12 hrs.

[4] = calf intestinal mucosa ADA, pH 7.0, read-out: ADA Ki
[5] = neutrophils and myocytes stimulated with TNF-α
[6] = Treated, Post reperfusion, mean ± sem

SMILES | Ki [1, 4] | Ki [3] | IC50 [2, 5] | Selectivity Ratio [3] | further results
CCCCCCCn1cnc2c1N=CNCC2O (stereo not shown) [compound 1a, 3-heptylcoformycin aglycone] | 0.35 µM | 10 µM |  |  | IC50 [2]: 12 ± 6 µM; recovery of LVDP (isolated rat hearts; 3 μM in perfusion, placebo 69±1%): 83±3%
Cc1ccccc1CCCn1cnc2c1N=CNCC2O (stereo not shown) [compound 1f, 3-(3'-(2"-methylphenyl)propyl)coformycin aglycone] | 0.042 µM | 2.1 µM | 1.4 ± 0.45 µM | 0.34 | 
[N-]=[N+]=NC1CNC=Nc2c1ncn2CCCc1ccccc1 (stereo not shown) [compound 1h] | 0.063 µM | 6.6 µM |  | 0.16 | 
CC1(C)[C@H]2CC[C@H](Cn3cnc4c3N=CNCC4O)[C@@H]1C2 (stereo partly drawn) [compound 1e, (l'S,2'S,5'S)-3-(6',6'-dimethyl[3,1,1]-bicyclohept-2'-methyl)coformycin aglycone] | > 160 µM | 1.7 µM | 24 ± 3 µM | > 1.6K | 
CC(CCCCn1cnc2c1N=CNCC2O)(C(=O)O)C(=O)NCc1ccccc1 (stereo not shown) [compound 1l, 3-(5'-carbox-N-benzylamido-5'-carboxyhexyl)coformycin aglycone] | > 1000 µM | 2.7 µM |  | > 6.3K | 
OC[C@H]1O[C@@H](n2cnc3c2NC=NC[C@H]3O)C[C@@H]1O [deoxycoformycin] |  |  |  |  | inhibition of AMPDA (AMPDA): 1000 nM
Cc1ccc(-c2nn[nH]n2)cc1CCn1cnc2c1N=CNCC2O (stereo not shown) [compound 1n, 3-(2'-(6"-methyl-3"-(tetrazol-5'"-yl)phenyl)ethyl)coformycin aglycone] |  | 1.6 µM |  | > 2.1K | Ki [1]: > 200 µM
CC1=Nc2c(ncn2CCCc2ccccc2C)C(O)CN1 (stereo not shown) [compound 1g, 5-methyl-3-(3'-(2"-methylphenyl)propyl)coformycin aglycone] | > 100 µM | 11 µM |  | > 150 | 
OC[C@H]1O[C@@H](n2cnc3c2N=CNC[C@H]3O)[C@H](O)[C@@H]1O [Coformycin, coformycin] |  |  |  |  | inhibition of ADA (ADA): < 0.2 nM; inhibition of AMPDA (AMPDA): 1000 nM
O=C(O)C(CCCCn1cnc2c1N=CNCC2O)C(=O)OCc1ccccc1 (stereo not shown) [compound 1k, 3-(5'-carboxy-5'-carbobenzyloxypentyl)coformycin aglycone] | > 1000 µM | 0.36 µM |  | > 47K | 
OC1CNC=Nc2c1ncn2C1CCCCCC1 (stereo not shown) [compound 1d, 3-cycloheptylcoformycin aglycone] | 7.9 µM | 8 µM | 4.3 ± 1.3 µM | 17 | Blood Pressure (Rat Focal Stroke Model; [6]): 115 ± 4 mm Hg; Temperature (Rat Focal Stroke Model; [6]): 38.6 ± 0.2 °C; Blood Pressure (Rat Focal Stroke Model; Treated, Pre, mean ± sem): 102 ± 5 mm Hg; Temperature (Rat Focal Stroke Model; Treated, T = 0, mean ± sem): 37.4 ± 0.2 °C; Blood Pressure (Rat Focal Stroke Model; Treated, T = 60, mean ± sem): 84 ± 9 mm Hg; Temperature (Rat Focal Stroke Model; Treated, T = 60, mean ± sem): 37.5 ± 0.2 °C; pCO2 (Rat Focal Stroke Model; Treated, mean ± sem): 37.8 ± 1.3; pH (Rat Focal Stroke Model; Treated, mean ± sem): 7.379 ± 0.015; pO2 (Rat Focal Stroke Model; Treated, mean ± sem): 142.3 ± 10.0; effect on physiological parameters such as blood pressure, heart rate, body temperature and blood gases (Rat Focal Stroke Model; continuous infusion): no apparent effect; reduction of infarct volume (Rat Focal Stroke Model; infusion 250 μg/kg/min for 15 min then 50 μg/kg/min, vs control): 52%; infarct volume (Rat Focal Stroke Model; treated, n=8, control 139±31 (n=7), p=0.05): 71±28 mm^3
CCCCCCCn1cnc2c1N=CNCC2(C)O (stereo not shown) [compound 1b, 3-heptyl-8-methylcoformycin aglycone] | 12 µM | 36 µM |  | 6 | 
CCCOc1ccc(CCCn2cnc3c2N=CNCC3O)cc1 (stereo not shown) [compound 1i, 3-(3'-(4"-propoxyphenyl)propyl)coformycin aglycone] | 0.006 µM | 3.6 µM |  | 0.03 | 
O=C(O)c1cc(CCn2cnc3c2N=CNCC3O)cs1 (stereo not shown) [compound 1o, 3-(2'-(2"-carboxythiophen-4"-yl)ethyl)coformycin aglycone] | > 6 µM | 2.2 µM | 8 ± 2 µM | 590 | 
Cc1ccc(C(=O)O)cc1CCn1cnc2c1N=CNCC2O (stereo not shown) [compound 1m, 3-(2'-(3"-carboxy-6"-methylphenyl)ethyl)coformycin aglycone] | > 1000 µM | 0.097 µM |  | > 175K | IC50 [2]: 0.03 ± 0.01 µM; recovery of LVDP (isolated rat hearts; 0.3 μM in perfusion, placebo 65±2%): 83±2%
CC(C)=CCC[C@H](C)CCn1cnc2c1N=CNCC2O (stereo partly drawn) [compound 1c, (3'S)-3-(3',7'-dimethyloct-6'-enyl)coformycin aglycone] | 1.9 µM | 1.1 µM | 5.1 ± 2.5 µM | 29 | 
O=C(O)C(CCCCn1cnc2c1NC=NCC2O)Cc1ccccc1 (stereo not shown) [compound 1j, 3-(5'-carboxy-6'-phenylhexyl)coformycin aglycone] | > 200 µM |  | 0.045 ± 0.01 µM |  | 
O=C(O)c1cc(CCn2cnc3c2N=CNCC3O)c2ccccc2c1 (stereo not shown) [compound 1p, 3-(2'-(3"-carboxynaphthyl)ethyl)coformycin aglycone] | > 1000 µM | 0.02 µM |  | > 850K | 
